Laboratory results from patent US20070010397A1, “Safeners and their application” (priority 2003, published 2007).

Experiments:
[1] = tested on: wheat (variety: Norin No.61); experiment: Test for safening effect against phytotoxicity of herbicidal compounds against wheat; type: in vivo; details: for Phytotoxicity %: wheat seeds in dish, after 5 days; for Expected value E by Colby's equation (Phytotoxicity %): wheat
Description: Preparation of Test Solution
Carrier: Acetone 5 parts by weight
Surfactant: Benzyloxy polyglycol ether 1 part by weight
A prescribed amount of the test solution is prepared by diluting with water the formulation obtained by mixing the above-mentioned carrier and surfactant with 1 part by weight of the active compounds (safeners and herbicidal compounds).
Test Example 1: Test for Safening Effect against Phytotoxicity of Herbicidal Compounds against Wheat
Seeds of wheat (variety: Norin No.61) were sown on absorbent cotton in a dish, containing the previously prepared, diluted solution with the prescribed concentration of the test compounds, and grown in a climate chamber. After 5 days the degree of phytotoxicity, particularly bleaching state, was observed and evaluated in 0-100%.
100% =Complete bleaching or withering state
(§1) Test results were evaluated by Colby's equation. Colby's equation: [formula]
E: Expected value of phytotoxicity by mixing
X: Measured value of phytotoxicity by one active compound • Y: Measured value of phytotoxicity by the other active compound Table 1

[2] = tested on: paddy rice (variety: Nipponbare); experiment: Test for safening effect against phytotoxicity of herbicidal compounds against paddy rice; type: in vivo
Description: as §1
Test Example 2: Test for Safening Effect against Phytotoxicity of Herbicidal Compounds against Paddy Rice (Method)
Two seedlings of paddy rice (variety: Nipponbare) of 2.5 leaf stage were transplanted in a plastic pot under submerged conditions with a trnsplantation depth of 0 cm. A diluted solution with the prescribed concentration of the 4% granules of the compound No. I-1 and herbicidal compounds were applied on the water surface. Three weeks after the application the degree of phytotoxicity was observed and evaluated in 0-100%.
100%=Complete withering state

[3] = safener 10 ppm alone (H-1 0 ppm), 0% = no phytotoxicity, 100% = complete bleaching or withering
[4] = safener 50 ppm alone (H-1 0 ppm)

## CS(=O)(=O)c1ccc(C(=O)C2=C(O)CCCC2=O)c(Cl)c1COCC1CCCO1 (stereo not drawn) [H-1]
[1]; H-1 10 ppm alone (safener 0 ppm)
  Phytotoxicity %: 50%
[2]; paddy rice, three weeks after application, H-1 0.6 kg/ha + No. I-1 1 kg/ha
  Phytotoxicity %: 10%
[2]; paddy rice, three weeks after application, H-1 0.6 kg/ha alone (No. I-1 0 kg/ha)
  Phytotoxicity %: 30%
[2]; paddy rice, H-1 0.6 kg/ha + No. I-1 1 kg/ha
  Expected value E by Colby's equation (Phytotoxicity %): 30%

## CCC(CC)c1ccc(NC(=O)c2snc(Cl)c2Cl)cc1 [No. I-5]
[1]; safener 10 ppm + H-1 10 ppm
  Phytotoxicity %: 30%
  Expected value E by Colby's equation (Phytotoxicity %): 50%
[1]; [3]
  Phytotoxicity %: 0%
[1]; safener 50 ppm + H-1 10 ppm
  Phytotoxicity %: 10%
  Expected value E by Colby's equation (Phytotoxicity %): 50%
[1]; [4]
  Phytotoxicity %: 0%

## CCC(C)c1ccc(NC(=O)c2snc(Cl)c2Cl)cc1 (stereo not drawn) [No. I-4]
[1]; safener 10 ppm + H-1 10 ppm
  Phytotoxicity %: 10%
  Expected value E by Colby's equation (Phytotoxicity %): 50%
[1]; [3]
  Phytotoxicity %: 0%
[1]; safener 50 ppm + H-1 10 ppm
  Phytotoxicity %: 5%
  Expected value E by Colby's equation (Phytotoxicity %): 50%
[1]; [4]
  Phytotoxicity %: 0%

## CC(C)(C)CSCc1ccc(NC(=O)c2snc(Cl)c2Cl)cc1 [No. I-7]
[1]; safener 10 ppm + H-1 10 ppm
  Phytotoxicity %: 30%
  Expected value E by Colby's equation (Phytotoxicity %): 50%
[1]; [3]
  Phytotoxicity %: 0%
[1]; safener 50 ppm + H-1 10 ppm
  Phytotoxicity %: 20%
  Expected value E by Colby's equation (Phytotoxicity %): 50%
[1]; [4]
  Phytotoxicity %: 0%

## CCOC(=O)[C@@H](C)Oc1ccc(Oc2nc3ccc(Cl)cc3o2)cc1 [H-3, Fenoxaprop-P-ethyl]
[2]; paddy rice, three weeks after application, H-3 0.1 kg/ha + No. I-1 1 kg/ha
  Phytotoxicity %: 40%
[2]; paddy rice, three weeks after application, H-3 0.1 kg/ha alone (No. I-1 0 kg/ha)
  Phytotoxicity %: 70%
[2]; paddy rice, H-3 0.1 kg/ha + No. I-1 1 kg/ha
  Expected value E by Colby's equation (Phytotoxicity %): 70%

## COC(=O)c1ccccc1CS(=O)(=O)NC(=O)Nc1nc(OC)cc(OC)n1 [H-2, Bensuiliron-methyl]
[2]; in vivo
  Phytotoxicity %: 40%

## N#Cc1ccccc1NC(=O)c1snc(Cl)c1Cl [No. I-1]
[1]; safener 10 ppm + H-1 10 ppm
  Phytotoxicity %: 20%
  Expected value E by Colby's equation (Phytotoxicity %): 50%
[1]; [3]
  Phytotoxicity %: 0%
[1]; safener 50 ppm + H-1 10 ppm
  Phytotoxicity %: 20%
  Expected value E by Colby's equation (Phytotoxicity %): 50%
[1]; [4]
  Phytotoxicity %: 0%
[2]; paddy rice 2.5 leaf stage, three weeks after application, No. I-1 (4% granules) 1 kg/ha alone, herbicide 0 kg/ha
  Phytotoxicity %: 0%

## Cc1ccc(NC(=O)c2snc(Cl)c2Cl)c(C)c1 [No. I-2]
[1]; safener 10 ppm + H-1 10 ppm
  Phytotoxicity %: 30%
  Expected value E by Colby's equation (Phytotoxicity %): 50%
[1]; [3]
  Phytotoxicity %: 0%
[1]; safener 50 ppm + H-1 10 ppm
  Phytotoxicity %: 10%
  Expected value E by Colby's equation (Phytotoxicity %): 50%
[1]; [4]
  Phytotoxicity %: 0%

## CCN(CC)Cc1ccc(CNC(=O)c2snc(Cl)c2Cl)cc1 [No. I-6]
[1]; safener 10 ppm + H-1 10 ppm
  Phytotoxicity %: 15%
  Expected value E by Colby's equation (Phytotoxicity %): 50%
[1]; [3]
  Phytotoxicity %: 0%
[1]; safener 50 ppm + H-1 10 ppm
  Phytotoxicity %: 15%
  Expected value E by Colby's equation (Phytotoxicity %): 50%
[1]; [4]
  Phytotoxicity %: 0%

## CN(C)CNC(=O)c1snc(Cl)c1Cl [No. I-3]
[1]; safener 10 ppm + H-1 10 ppm
  Phytotoxicity %: 5%
  Expected value E by Colby's equation (Phytotoxicity %): 50%
[1]; [3]
  Phytotoxicity %: 0%
[1]; safener 50 ppm + H-1 10 ppm
  Phytotoxicity %: 0%
  Expected value E by Colby's equation (Phytotoxicity %): 50%
[1]; [4]
  Phytotoxicity %: 0%
